In US20120115877A1, “Facially Amphiphilic Compounds, Compositions, And Uses Thereof In Treating Cancer” (POLYMEDIX, INC., priority 2010, published 2012):

How the values were obtained:
Type in all cases: cell-based, human
T-47D = assay: NCI-60 screen, Breast Cancer; conditions: 10 μM
Protocol: (§1) Several compounds were tested at single concentrations (10 μM) against 59 different human tumor cell lines, representing leukemia, melanoma and cancers of the lung, colon, brain, ovary, breast, prostate, and kidney (see, Table 3). The human tumor cell lines of the cancer screening panel were grown in RPMI 1640 medium containing 5% fetal bovine serum and 2 mM L-glutamine. For a typical screening experiment, cells were inoculated into 96 well microtiter plates in 100 μL at plating densities ranging from 5,000 to 40,000 cells/well depending on the doubling time of individual cell lines. After cell inoculation, the microtiter plates were incubated at 37° C., 5% CO2, 95% air and 100% relative humidity for 24 hours prior to addition of the compounds.
(§2) After 24 hours, two plates of each cell line were fixed in situ with TCA, to represent a measurement of the cell population for each cell line at the time of drug addition (Tz). Compounds were solubilized in dimethyl sulfoxide at 400-fold the desired final maximum test concentration and stored frozen prior to use. At the time of drug addition, an aliquot of frozen concentrate was thawed and diluted to twice the desired final maximum test concentration with complete medium containing 50 μg/ml gentamicin. Additional four, 10-fold or ½ log serial dilutions were made to provide a total of five compound concentrations plus control. Aliquots of 100 μl of these different drug dilutions were added to the appropriate microtiter wells already containing 100 μl of medium, resulting in the required final compound concentrations.
(§3) Following drug addition, the plates were incubated for an additional 48 hours at 37° C., 5% CO2, 95% air, and 100% relative humidity. For adherent cells, the assay was terminated by the addition of cold TCA. Cells were fixed in situ by the gentle addition of 50 μl of cold 50% (w/v) TCA (final concentration, 10% TCA) and incubated for 60 minutes at 4° C. The supernatant was discarded, and the plates were washed five times with tap water and air dried. Sulforhodamine B (SRB) solution (100 μl) at 0.4% (w/v) in 1% acetic acid was added to each well, and plates were incubated for 10 minutes at room temperature. After staining, unbound dye was removed by washing five times with 1% acetic acid and the plates were air dried. Bound stain was subsequently solubilized with 10 mM trizma base, and the absorbance was read on an automated plate reader at a wavelength of 515 nm. For suspension cells, the methodology was the same except that the assay was terminated by fixing settled cells at the bottom of the wells by gently adding 50 μl of 80% TCA (final concentration, 16% TCA). Using the seven absorbance measurements (time zero, (Tz), control growth, (C), and test growth in the presence of drug at the five concentration levels (Ti)), the percentage growth was calculated at each of the compound concentrations levels. Percentage growth inhibition was calculated as:
(§4) [(Ti−Tz)/(C−Tz)]×100 for concentrations for which Ti>/=Tz
(§5) [(Ti−Tz)/Tz]×100 for concentrations for which Ti<Tz.
(§6) Three dose response parameters were calculated for each compound. Growth inhibition of 50% (GI50) was calculated from [(Ti−Tz)/(C−Tz)]×100=50, which is the compound concentration resulting in a 50% reduction in the net protein increase (as measured by SRB staining) in control cells during the compound incubation. The compound concentration resulting in total growth inhibition (TGI) was calculated from Ti=Tz. The LC50 (concentration of compound resulting in a 50% reduction in the measured protein at the end of the compound treatment as compared to that at the beginning) indicating a net loss of cells following treatment was calculated from [(Ti−Tz)/Tz]×100=−50. Values were calculated for each of these three parameters if the level of activity was reached; however, if the effect was not reached or was exceeded, the value for that parameter was expressed as greater or less than the maximum or minimum concentration tested.

MDA-MB-31/ATCC = assay: NCI-60 screen, Breast Cancer; conditions: 10 μM, MDA-MB-231/ATCC
Protocol: as §1, §2, §3, §4, §5, §6

BT-549 = assay: NCI-60 screen, Breast Cancer; conditions: 10 μM
Protocol: as §1, §2, §3, §4, §5, §6

MCF7 = assay: NCI-60 screen, Breast Cancer; conditions: 10 μM
Protocol: as §1, §2, §3, §4, §5, §6

MDA-MB-468 = assay: NCI-60 screen, Breast Cancer; conditions: 10 μM
Protocol: as §1, §2, §3, §4, §5, §6

UACC-257 = assay: NCI-60 screen, Melanoma; conditions: 10 μM
Protocol: as §1, §2, §3, §4, §5, §6

MALME-3M = assay: NCI-60 screen, Melanoma; conditions: 10 μM
Protocol: as §1, §2, §3, §4, §5, §6

SK-MEL-5 = assay: NCI-60 screen, Melanoma; conditions: 10 μM
Protocol: as §1, §2, §3, §4, §5, §6

SK-MEL-28 = assay: NCI-60 screen, Melanoma; conditions: 10 μM
Protocol: as §1, §2, §3, §4, §5, §6

SK-MEL-2 = assay: NCI-60 screen, Melanoma; conditions: 10 μM
Protocol: as §1, §2, §3, §4, §5, §6

OVCAR-4 = assay: NCI-60 screen, Ovarian Cancer; conditions: 10 μM
Protocol: as §1, §2, §3, §4, §5, §6

OVCAR-5 = assay: NCI-60 screen, Ovarian Cancer; conditions: 10 μM
Protocol: as §1, §2, §3, §4, §5, §6

OVCAR-3 = assay: NCI-60 screen, Ovarian Cancer; conditions: 10 μM
Protocol: as §1, §2, §3, §4, §5, §6

NCI/ADR-RES = assay: NCI-60 screen, Ovarian Cancer; conditions: 10 μM
Protocol: as §1, §2, §3, §4, §5, §6

IGROV1 = assay: NCI-60 screen, Ovarian Cancer; conditions: 10 μM
Protocol: as §1, §2, §3, §4, §5, §6

OVCAR-8 = assay: NCI-60 screen, Ovarian Cancer; conditions: 10 μM
Protocol: as §1, §2, §3, §4, §5, §6

SK-OV-3 = assay: NCI-60 screen, Ovarian Cancer; conditions: 10 μM
Protocol: as §1, §2, §3, §4, §5, §6

NCI-H23 = assay: NCI-60 screen, Non-Small Cell Lung Cancer; conditions: 10 μM
Protocol: as §1, §2, §3, §4, §5, §6

NCI-H522 = assay: NCI-60 screen, Non-Small Cell Lung Cancer; conditions: 10 μM
Protocol: as §1, §2, §3, §4, §5, §6

EKVX = assay: NCI-60 screen, Non-Small Cell Lung Cancer; conditions: 10 μM
Protocol: as §1, §2, §3, §4, §5, §6

NCI-H322M = assay: NCI-60 screen, Non-Small Cell Lung Cancer; conditions: 10 μM
Protocol: as §1, §2, §3, §4, §5, §6

NCI-H226 = assay: NCI-60 screen, Non-Small Cell Lung Cancer; conditions: 10 μM
Protocol: as §1, §2, §3, §4, §5, §6

HOP-92 = assay: NCI-60 screen, Non-Small Cell Lung Cancer; conditions: 10 μM
Protocol: as §1, §2, §3, §4, §5, §6

NCI-H460 = assay: NCI-60 screen, Non-Small Cell Lung Cancer; conditions: 10 μM
Protocol: as §1, §2, §3, §4, §5, §6

A549/ATCC = assay: NCI-60 screen, Non-Small Cell Lung Cancer; conditions: 10 μM
Protocol: as §1, §2, §3, §4, §5, §6

HOP-62 = assay: NCI-60 screen, Non-Small Cell Lung Cancer; conditions: 10 μM
Protocol: as §1, §2, §3, §4, §5, §6

| Structure (SMILES) | Percent Growth (T-47D) [%] | Percent Growth (MDA-MB-31/ATCC) [%] | Percent Growth (BT-549) [%] | Percent Growth (MCF7) [%] | Percent Growth (MDA-MB-468) [%] | Percent Growth (UACC-257) [%] | Percent Growth (MALME-3M) [%] | Percent Growth (SK-MEL-5) [%] | Percent Growth (SK-MEL-28) [%] | Percent Growth (SK-MEL-2) [%] | Percent Growth (OVCAR-4) [%] | Percent Growth (OVCAR-5) [%] | Percent Growth (OVCAR-3) [%] | Percent Growth (NCI/ADR-RES) [%] | Percent Growth (IGROV1) [%] | Percent Growth (OVCAR-8) [%] | Percent Growth (SK-OV-3) [%] | Percent Growth (NCI-H23) [%] | Percent Growth (NCI-H522) [%] | Percent Growth (EKVX) [%] | further results |
| --- | --- | --- | --- | --- | --- | --- | --- | --- | --- | --- | --- | --- | --- | --- | --- | --- | --- | --- | --- | --- | --- |
| NCCc1cc(Br)cc(C#Cc2cccc(C#Cc3cc(Br)cc(CCN)c3)c2)c1 [Compound A] | 31.82 | 4.31 | 102 | −89.84 | −61.5 | 68.25 | 106.8 | 80.5 | 79.76 | 3.515 | −28.5 | 60.77 | −35.66 | 23.97 | −4.832 | −14.54 | 94.37 | 94.81 | −78.21 | 62.48 | Percent Growth (NCI-H322M): 53%; Percent Growth (NCI-H226): 108.9%; Percent Growth (HOP-92): 73.03%; Percent Growth (NCI-H460): −49.11%; Percent Growth (A549/ATCC): −15.97%; Percent Growth (HOP-62): 21.99% |
| N=C(N)NCCCCC(=O)Nc1cc(C(F)(F)F)cc(NC(=O)Nc2ccc(NC(=O)Nc3cc(C(F)(F)F)cc(NC(=O)CCCCNC(=N)N)c3OC3CCNC3)cc2)c1OC1CCNC1 (stereo not shown) [Compound B] | 3.786 | 73.02 | 89.61 | 44.41 | 43.02 | 75.89 | 83.13 | 50.91 | 68.29 | 60.98 | 23.18 | 77.33 | 45.06 | 87.71 | 82.4 | 66.59 | 59.3 | 77.57 | −11.87 | 61.92 | Percent Growth (NCI-H322M): 80.76%; Percent Growth (NCI-H226): 51.21%; Percent Growth (HOP-92): 81.51%; Percent Growth (NCI-H460): 50.72%; Percent Growth (A549/ATCC): 49.78%; Percent Growth (HOP-62): 23.47% |
| N=C(N)NCCCCC(=O)Nc1cc(C(F)(F)F)cc(NC(=O)c2cc(C(=O)Nc3cc(C(F)(F)F)cc(NC(=O)CCCCNC(=N)N)c3SCCN)ncn2)c1SCCN [Compound C] | 14.59 | 81.52 | 96.67 | 10.27 | −53.05 | 61.31 | 63.62 | 34.55 | 61.39 | 54.29 | 38.79 | 75.78 | 37.56 | 55.27 | 51.71 | 39.11 | 82.66 | 80.24 | −26.87 | 59.82 | Percent Growth (NCI-H322M): 83.13%; Percent Growth (NCI-H226): 63.82%; Percent Growth (HOP-92): 93.99%; Percent Growth (NCI-H460): 28.72%; Percent Growth (A549/ATCC): 37.26%; Percent Growth (HOP-62): 37.78% |
| NCCCc1cccc(-c2ccc3oc4ccc(-c5cccc(CCCN)c5)cc4c3c2)c1 [Compound G] | 80.44 | 37.19 | 101.5 | −44.29 | −3.51 | 44.84 | 105 | 89.15 | 102.1 | 72.07 | 54.91 | 64.48 | 18.54 | 83.66 | 42.2 | 33.74 | 94.45 | 99.38 | 69.45 | 81.69 | Percent Growth (NCI-H322M): 108.3%; Percent Growth (NCI-H226): 104.4%; Percent Growth (HOP-92): 61.6%; Percent Growth (NCI-H460): 23.91%; Percent Growth (HOP-62): 72.69% |
